In brackets after ≈: the same amount, converted by molar mass.
Columns and labels:
Assay in all cases: microbe, parasite or virus in culture
C. neoformans = assay type: cell-based, Cryptococcus neoformans
Description: (§1) Microbial strains: Microbial strains were procured from National Culture Collection of Pathogenic Fungi (NCCPF) at the Postgraduate Institute of Medical Education & Research (PGIMER), Chandigarh and Microbial Type Culture Collection and Gene bank (MTCC) at the Institute of Microbial Technology (IMTECH), Chandigarh, India. Peptides were screened against five different strains of fungi: viz. Candida albicans (NCCPF400034), Candida glabrata (MTCC 3019), Candida parapsilosis (NCCPF 440002), Candida krusei (NCCPF 440002) and Cryptococcus neoformans (NCCPF250316), and five strains of bacteria: viz. Escherichia coli (MTCC 2961), Staphylococcus aureus (MTCC 3160), Enterococcus faecalis (MTCC 439), Streptococcus pyogenes (MTCC 442) and Pseudomonas aeruginosa (MTCC 3542).
(§2) Growth media: Antifungal susceptibility testing was carried out using standard broth microdilution assays as per the Clinical and Laboratory Standards Institute (CLSI) guidelines for fungi. RPMI 1640 (Sigma), yeast extract, peptone and dextrose (YPED, Himedia) were used as the incubation broths. The cells were diluted to a cell density of 10^3 colony forming unit (CFU/mL) and incubated at 30 °C for 48 h. Furthermore, Muller Hinton (Himedia) media was utilized for bacterial strains and antibacterial activity was evaluated per CLSI guidelines for bacteria. Bacterial cells were diluted to a cell density of 10^5 CFU/mL and incubated at 37 °C for 24 h. Amphotericin B (Himedia, India) and rifampicin (Himedia, India) were used as standard drugs for the evaluation of activity against all the fungal and bacterial strains, respectively.
(§3) The stock solutions of peptides (2 mg/mL) were prepared in DMSO. Specific amounts of peptide from stock solution were added to a 96-well microtiter plate containing 100 μL of growth media and then serially diluted two-fold. A further 100 μL of growth media containing microbial cells were added to each well and incubated at 30–37 °C for 24–48 h. The optical density (OD) was measured at 600 nm using a BioStack Ready (BioTek Instruments, Winooski, VT, USA) microplate reader to analyze microbial growth inhibition, and IC50 and MIC values were calculated. To visualize the growth and inhibition pattern, a solution of 3-(4,5-dimethylthiazol-2-yl)-2,5-diphenyltetrazolium bromide (MTT) in water was added to the plate and incubated for 2–3 h. MTT reacts with the mitochondrial dehydrogenases, which are present only in a viable cell, to give blue colored formazan crystals. Therefore, a darker color indicates a high number of viable cells; however, non-viable cells appear pale or colorless.

C. albicans = assay type: cell-based, Candida albicans; details: 48 h
Description: as §1, §2, §3

C. glabrata = assay type: cell-based, Candida glabrata; details: 48 h
Description: as §1, §2, §3

C. parapsilosis = assay type: cell-based, Candida parapsilosis; details: 48 h
Description: as §1, §2, §3

C. krusei = assay type: cell-based, Candida krusei; details: 48 h
Description: as §1, §2, §3

[1] = C. neoformans, lowest test concentration with no detectable growth

Row | SMILES | IC50 (C. neoformans; 48 h) | MIC (C. neoformans; 48 h) | IC50 (C. albicans) | MIC (C. albicans) | IC50 (C. glabrata) | MIC (C. glabrata) | IC50 (C. parapsilosis) | MIC (C. parapsilosis) | IC50 (C. krusei) | MIC (C. krusei) | MIC (C. neoformans; [1]) | Fold reduction of activity (C. neoformans; C. neoformans, on replacing methyl of the tert-butyl moiety with fluorine)
1 | COC(=O)[C@H](Cc1ncn(Cc2ccccc2C(F)(F)F)c1I)NC(=O)[C@@H](N)Cc1c[nH]c2ccccc12 [10f] | 17.70 µg/mL (≈ 27.7 µM) | 32.18 µg/mL (≈ 50.3 µM) | >35.2 µg/mL | >64.0 µg/mL | >35.2 µg/mL | >64.0 µg/mL | >35.2 µg/mL | >64.0 µg/mL | >35.2 µg/mL | >64.0 µg/mL | – | –
2 | COC(=O)[C@H](Cc1ncn(Cc2ccc(F)c(F)c2)c1I)NC(=O)[C@@H](N)Cc1c[nH]c2ccccc12 [10i] | 10.28 µg/mL (≈ 16.9 µM) | – | >35.2 µg/mL | >64.0 µg/mL | >35.2 µg/mL | >64.0 µg/mL | >35.2 µg/mL | >64.0 µg/mL | >35.2 µg/mL | >64.0 µg/mL | 18.7 µg/mL (≈ 30.8 µM) | –
3 | COC(=O)[C@H](Cc1ncn(Cc2ccc(F)c(F)c2)c1I)NC(=O)[C@H](Cc1c[nH]c2ccccc12)NC(=O)OC(C)(C)C [9i] | 17.62 µg/mL (≈ 24.9 µM) | 32.05 µg/mL (≈ 45.3 µM) | >35.2 µg/mL | >64.0 µg/mL | >35.2 µg/mL | >64.0 µg/mL | >35.2 µg/mL | >64.0 µg/mL | >35.2 µg/mL | >64.0 µg/mL | – | –
4 | COC(=O)[C@H](Cc1ncn(Cc2ccc(C(C)C)cc2)c1I)NC(=O)[C@H](Cc1c[nH]c2ccccc12)NC(=O)OC(C)(C)C [9c] | 20.39 µg/mL (≈ 28.6 µM) | 37.08 µg/mL (≈ 52 µM) | >35.2 µg/mL | >64.0 µg/mL | >35.2 µg/mL | >64.0 µg/mL | >35.2 µg/mL | >64.0 µg/mL | >35.2 µg/mL | >64.0 µg/mL | – | –
5 | COC(=O)[C@H](Cc1ncn(Cc2cccc(F)c2)c1I)NC(=O)[C@H](Cc1c[nH]c2ccccc12)NC(=O)OC(C)(C)C [9k] | 18.16 µg/mL (≈ 26.3 µM) | 32.02 µg/mL (≈ 46.4 µM) | >35.2 µg/mL | >64.0 µg/mL | >35.2 µg/mL | >64.0 µg/mL | >35.2 µg/mL | >64.0 µg/mL | >35.2 µg/mL | >64.0 µg/mL | – | –
6 | COC(=O)[C@H](Cc1ncn(Cc2ccccc2C(F)(F)F)c1I)NC(=O)[C@H](Cc1c[nH]c2ccccc12)NC(=O)OC(C)(C)C [9f] | 30.56 µg/mL (≈ 41.3 µM) | 55.57 µg/mL (≈ 75.1 µM) | >35.2 µg/mL | >64.0 µg/mL | >35.2 µg/mL | >64.0 µg/mL | >35.2 µg/mL | >64.0 µg/mL | >35.2 µg/mL | >64.0 µg/mL | – | –
7 | COC(=O)[C@H](Cc1ncn(Cc2ccccc2I)c1I)NC(=O)[C@H](Cc1c[nH]c2ccccc12)NC(=O)OC(C)(C)C [9o] | >35.2 µg/mL | >64.0 µg/mL | >35.2 µg/mL | >64.0 µg/mL | >35.2 µg/mL | >64.0 µg/mL | >35.2 µg/mL | >64.0 µg/mL | >35.2 µg/mL | >64.0 µg/mL | – | –
8 | COC(=O)[C@H](Cc1ncn(Cc2cccc(Cl)c2)c1I)NC(=O)[C@H](Cc1c[nH]c2ccccc12)NC(=O)OC(C)(C)C [9l] | 18.59 µg/mL (≈ 26.3 µM) | 33.80 µg/mL (≈ 47.9 µM) | >35.2 µg/mL | >64.0 µg/mL | >35.2 µg/mL | >64.0 µg/mL | >35.2 µg/mL | >64.0 µg/mL | >35.2 µg/mL | >64.0 µg/mL | – | –

Continued, in another order:

Row | IC50 (C. neoformans; 48 h) | MIC (C. neoformans; 48 h) | IC50 (C. albicans) | MIC (C. albicans) | IC50 (C. glabrata) | MIC (C. glabrata) | IC50 (C. parapsilosis) | MIC (C. parapsilosis) | IC50 (C. krusei) | MIC (C. krusei) | MIC (C. neoformans; [1]) | SMILES | Fold reduction of activity (C. neoformans; C. neoformans, on replacing methyl of the tert-butyl moiety with fluorine)
9 | 18.63 µg/mL (≈ 24.8 µM) | 33.88 µg/mL (≈ 45.1 µM) | >35.2 µg/mL | >64.0 µg/mL | >35.2 µg/mL | >64.0 µg/mL | >35.2 µg/mL | >64.0 µg/mL | >35.2 µg/mL | >64.0 µg/mL | – | COC(=O)[C@H](Cc1ncn(Cc2cccc(Br)c2)c1I)NC(=O)[C@H](Cc1c[nH]c2ccccc12)NC(=O)OC(C)(C)C [9m] | –
10 | 6.09 µg/mL (≈ 10 µM) | 11.08 µg/mL (≈ 18.2 µM) | >35.2 µg/mL | >64.0 µg/mL | >35.2 µg/mL | >64.0 µg/mL | >35.2 µg/mL | >64.0 µg/mL | >35.2 µg/mL | >64.0 µg/mL | – | COC(=O)[C@H](Cc1ncn(Cc2cc(F)cc(F)c2)c1I)NC(=O)[C@@H](N)Cc1c[nH]c2ccccc12 [10j] | –
11 | 17.73 µg/mL (≈ 25.1 µM) | 32.25 µg/mL (≈ 45.6 µM) | >35.2 µg/mL | >64.0 µg/mL | >35.2 µg/mL | >64.0 µg/mL | >35.2 µg/mL | >64.0 µg/mL | >35.2 µg/mL | >64.0 µg/mL | – | COC(=O)[C@H](Cc1ncn(Cc2cc(F)cc(F)c2)c1I)NC(=O)[C@H](Cc1c[nH]c2ccccc12)NC(=O)OC(C)(C)C [9j] | –
12 | >35.2 µg/mL | >64.0 µg/mL | >35.2 µg/mL | >64.0 µg/mL | >35.2 µg/mL | >64.0 µg/mL | >35.2 µg/mL | >64.0 µg/mL | >35.2 µg/mL | >64.0 µg/mL | – | COC(=O)[C@H](Cc1ncn(Cc2ccc([N+](=O)[O-])cc2)c1I)NC(=O)[C@H](Cc1c[nH]c2ccccc12)NC(=O)OC(C)(C)C [9h] | –
13 | 17.68 µg/mL (≈ 30.9 µM) | 32.15 µg/mL (≈ 56.3 µM) | >35.2 µg/mL | >64.0 µg/mL | >35.2 µg/mL | >64.0 µg/mL | >35.2 µg/mL | >64.0 µg/mL | >35.2 µg/mL | >64.0 µg/mL | – | COC(=O)[C@H](Cc1ncn(Cc2ccccc2)c1I)NC(=O)[C@@H](N)Cc1c[nH]c2ccccc12 [10a] | –
14 | 20.71 µg/mL (≈ 28 µM) | 37.65 µg/mL (≈ 50.9 µM) | >35.2 µg/mL | >64.0 µg/mL | >35.2 µg/mL | >64.0 µg/mL | >35.2 µg/mL | >64.0 µg/mL | >35.2 µg/mL | >64.0 µg/mL | – | COC(=O)[C@H](Cc1ncn(Cc2cccc(C(F)(F)F)c2)c1I)NC(=O)[C@H](Cc1c[nH]c2ccccc12)NC(=O)OC(C)(C)C [9e] | –
15 | 23.58 µg/mL (≈ 29.6 µM) | 42.87 µg/mL (≈ 53.8 µM) | >35.2 µg/mL | >64.0 µg/mL | >35.2 µg/mL | >64.0 µg/mL | >35.2 µg/mL | >64.0 µg/mL | >35.2 µg/mL | >64.0 µg/mL | – | COC(=O)[C@H](Cc1ncn(Cc2cccc(I)c2)c1I)NC(=O)[C@H](Cc1c[nH]c2ccccc12)NC(=O)OC(C)(C)C [9n] | –
16 | 13.53 µg/mL (≈ 21.2 µM) | – | >35.2 µg/mL | >64.0 µg/mL | >35.2 µg/mL | >64.0 µg/mL | >35.2 µg/mL | >64.0 µg/mL | >35.2 µg/mL | >64.0 µg/mL | 24.6 µg/mL (≈ 38.5 µM) | COC(=O)[C@H](Cc1ncn(Cc2ccc(C(F)(F)F)cc2)c1I)NC(=O)[C@@H](N)Cc1c[nH]c2ccccc12 [10g] | 2.6 fold
17 | >35.2 µg/mL | >64.0 µg/mL | >35.2 µg/mL | >64.0 µg/mL | >35.2 µg/mL | >64.0 µg/mL | >35.2 µg/mL | >64.0 µg/mL | >35.2 µg/mL | >64.0 µg/mL | – | COC(=O)[C@H](Cc1ncn(Cc2ccc(C(C)(C)C)cc2)c1I)NC(=O)[C@H](Cc1c[nH]c2ccccc12)NC(=O)OC(C)(C)C [9b] | –
